Columns and labels:
[1] = in vitro; type: cell-based; conditions: human, HepG2 or HepG2.117 cells, ATPlite, 3-days incubation (not marked with *), mean value
Method in brief: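 Luminescent ATP quantitation served as the viability endpoint following a 3- or 4-day incubation with test compounds.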

[2] = test system: HBV (HepG2.117 cell line, inducibly HBV producing); test: Anti-HBV activity: intracellular HBV DNA by real-time PCR in HepG2.117 cells after 3 days of treatment; type: cell-based, hepatitis B virus; conditions: Hepatitis B virus, HepG2.117, 72 h, HepG2.117 cells, intracellular HBV DNA by real-time PCR, 3 days of treatment, mean value; read-out: EC50 (μM, mean value)
Method in brief: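 HepG2.117 cells (Tet-off, inducible HBV production) were induced to replicate HBV by doxycycline absence, then treated with serially diluted compound for 3 days. Activity was quantified as intracellular HBV DNA by real-time PCR using an HBV-specific primer set and probe.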

| Compound | CC50 at 3 days [1] | EC50 [2] |
| --- | --- | --- |
| CNC(=O)c1ccc(-n2c(NC(C)C)nc3c(c2=O)C[C@@H](C)N(C(=O)c2ccc(Br)c4c2OCCC4)C3)cc1 [Compound C588] | > 50 µM | 1.61 µM |
| CNC(=O)c1ccc(-n2c(NC(C)C)nc3c(c2=O)C[C@@H](C)N(C(=O)c2ccc(Br)c(C)c2)C3)cc1 [Compound C589] | > 50 µM | 0.04 µM |
| CNC(=O)c1ccc(-n2c(NC(C)C)nc3c(c2=O)C[C@@H](C)N(C(=O)c2cc(Cl)c(Cl)cc2OC)C3)cc1 [Compound C590] | > 50 µM | 12.4 µM |
| CNC(=O)c1ccc(-n2c(NC(C)C)nc3c(c2=O)C[C@@H](C)N(C(=O)c2cc4sc(Br)cc4[nH]2)C3)cc1 [Compound C591] | 23.2 µM | 0.01 µM |
| CNC(=O)c1ccc(-n2c(NC(C)C)nc3c(c2=O)C[C@@H](C)N(C(=O)c2cc(F)c(Br)cc2Cl)C3)cc1 [Compound C592] | > 50 µM | 0.7 µM |
| CNC(=O)c1ccc(-n2c(NC(C)C)nc3c(c2=O)C[C@@H](C)N(C(=O)c2ccc(Cl)cc2OC)C3)cc1 [Compound C593] | > 50 µM | > 25 µM |
| CNC(=O)c1ccc(-n2c(NC(C)C)nc3c(c2=O)C[C@@H](C)N(C(=O)c2cc4ccc(Cl)c(F)c4[nH]2)C3)cc1 [Compound C594] | 26.1 µM | 0.04 µM |
| CNC(=O)c1ccc(-n2c(N(C)Cc3nc(C)n[nH]3)nc3c(c2=O)C[C@@H](C)N(C(=O)c2ccc(Cl)c(Cl)c2)C3)cc1 [Compound C595] | > 50 µM | > 25 µM |
| CNC(=O)c1ccc(-n2c(NC(C)c3ccc(C(F)(F)F)s3)nc3c(c2=O)C[C@@H](C)N(C(=O)c2ccc(Cl)c(Cl)c2)C3)cc1 (stereo partly drawn) [Compound C596] | 25.5 µM | 0.4 µM |
| CNC(=O)c1ccc(-n2c(NCc3cccc(-c4nnc[nH]4)c3)nc3c(c2=O)C[C@@H](C)N(C(=O)c2ccc(Cl)c(Cl)c2)C3)cc1 [Compound C597] | > 50 µM | 9.49 µM |
| CNC(=O)c1ccc(-n2c(NCc3nc(C(F)(F)F)n[nH]3)nc3c(c2=O)C[C@@H](C)N(C(=O)c2ccc(Cl)c(Cl)c2)C3)cc1 [Compound C598] | > 50 µM | > 25 µM |
| CNC(=O)c1ccc(-n2c(NCCCc3nc(=O)[nH][nH]3)nc3c(c2=O)C[C@@H](C)N(C(=O)c2ccc(Cl)c(Cl)c2)C3)cc1 [Compound C599] | > 50 µM | > 25 µM |
| CNC(=O)c1ccc(-n2c(NCc3n[nH]c(=O)[nH]3)nc3c(c2=O)C[C@@H](C)N(C(=O)c2ccc(Cl)c(Cl)c2)C3)cc1 [Compound C600] | > 50 µM | > 25 µM |
| CNC(=O)c1ccc(-n2c(NCC(n3cncn3)C(F)(F)F)nc3c(c2=O)C[C@@H](C)N(C(=O)c2ccc(Cl)c(Cl)c2)C3)cc1 (stereo partly drawn) [Compound C601] | > 50 µM | 7.71 µM |
| CNC(=O)c1ccc(-n2c(NC(C)C)nc3c(c2=O)C[C@@H](C)N(C(=O)c2cc(Br)cc(C(F)(F)F)c2)C3)cc1 [Compound C602] | > 25 µM | 0.38 µM |
| CNC(=O)c1ccc(-n2c(N(C)Cc3cnn(-c4ccccc4)n3)nc3c(c2=O)C[C@@H](C)N(C(=O)c2ccc(Cl)c(Cl)c2)C3)cc1 [Compound C603] | > 50 µM | 0.21 µM |
| CNC(=O)c1ccc(-n2c(NC(C)C)nc3c(c2=O)C[C@@H](C)N(C(=O)c2ccc4c(c2)C=CS4(=O)=O)C3)cc1 [Compound C604] | > 50 µM | > 25 µM |
| CCN(Cc1ccc2c(c1)OCO2)c1nc2c(c(=O)n1-c1ccc(C(=O)NC)cc1)C[C@@H](C)N(C(=O)c1ccc(Cl)c(Cl)c1)C2 [Compound C605] | > 50 µM | 0.15 µM |
| CNC(=O)c1cc(-n2c(N[C@@H](C)c3ccc(OC(F)(F)F)cc3)nc3c(c2=O)C[C@@H](C)N(C(=O)c2ccc(Cl)c(Cl)c2)C3)[nH]n1 [Compound C607] | 11.4 µM | 0.14 µM |
| CNC(=O)c1ccc(-n2c(N[C@@H](C)c3ccc(C(F)F)cc3)nc3c(c2=O)C[C@@H](C)N(C(=O)c2ccc(Cl)c(Cl)c2)C3)cc1 [Compound C609] | 18.7 µM | 0.08 µM |

| Compound | CC50 at 3 days [1] | EC50 [2] |
| --- | --- | --- |
| CC(C)Nc1nc2c(c(=O)n1-c1ccc(-c3nnc[nH]3)cc1)C[C@@H](C)N(C(=O)c1ccc(Cl)c(Cl)c1)C2 [Compound C610] | > 50 µM | 0.17 µM |
| CC(C)Nc1nc2c(c(=O)n1-c1ccc(-n3cncn3)cc1)C[C@@H](C)N(C(=O)c1ccc(Cl)c(Cl)c1)C2 [Compound C611] | > 50 µM | 0.17 µM |
| CNc1noc2cc(-n3c(N[C@@H](C)c4ccc(C(F)(F)F)cc4)nc4c(c3=O)C[C@@H](C)N(C(=O)c3ccc(Cl)c(Cl)c3)C4)ccc12 [Compound C612, (R)-7-(3,4-dichlorobenzoyl)-6-methyl-3-(3-(methylamino)-benzo[d]isoxazol-6-yl)-2-(((S)-1-(4-(trifluoromethyl)phenyl)ethyl)amino)-5,6,7,8-tetrahydropyrido[3,4-d]pyrimidin-4(3H)-one] | > 50 µM | 0.14 µM |
| CNC(=O)c1cnc(-n2c(N[C@@H](C)c3ccc(F)cc3)nc3c(c2=O)C[C@@H](C)N(C(=O)c2ccc(Cl)c(Cl)c2)C3)cn1 [Compound C614] | > 50 µM | 0.09 µM |
| CNC(=O)c1cnc(-n2c(N[C@@H](C)c3ccc(C(F)(F)F)cc3)nc3c(c2=O)C[C@@H](C)N(C(=O)c2ccc(Cl)c(Cl)c2)C3)cn1 [Compound C615] | > 50 µM | 0.13 µM |
| CNc1noc2cc(-n3c(N[C@@H](C)c4ccc(OC(F)(F)F)cc4)nc4c(c3=O)C[C@@H](C)N(C(=O)c3ccc(Cl)c(Cl)c3)C4)ccc12 [Compound C616] | > 50 µM | 0.19 µM |
| CNC(=O)c1cc(-n2c(N[C@@H](C)c3ccc(OC(F)(F)F)cc3)nc3c(c2=O)C[C@@H](C)N(C(=O)c2ccc(Cl)c(Cl)c2)C3)n(C)n1 [Compound C618] | > 45 µM | 0.09 µM |
| CNC(=O)c1ncc(-n2c(N[C@@H](C)c3ccc(OC(F)(F)F)cc3)nc3c(c2=O)C[C@@H](C)N(C(=O)c2ccc(Cl)c(Cl)c2)C3)n1C [Compound C620] | > 50 µM | 0.17 µM |
| CNC(=O)c1ccc(-n2c(N[C@H]3C[C@H]4CC[C@]3(C)C4(C)C)nc3c(c2=O)C[C@@H](C)N(C(=O)c2ccc(Cl)c(Cl)c2)C3)cc1 [Compound C621] | 5.99 µM | > 2.5 µM |
| CNC(=O)c1cc(-n2c(N[C@@H](C)c3ccc(OC(F)(F)F)cc3)nc3c(c2=O)C[C@@H](C)N(C(=O)c2ccc(Cl)c(Cl)c2)C3)nn1C [Compound C622] | > 50 µM | 0.07 µM |
| CNC(=O)c1cc(-n2c(N[C@@H](C)c3ccc(C(F)(F)F)cc3)nc3c(c2=O)C[C@@H](C)N(C(=O)c2ccc(Cl)c(Cl)c2)C3)nn1C [Compound C623] | > 50 µM | 0.04 µM |
| CNC(=O)c1cc(-n2c(N[C@@H](C)c3ccc(F)cc3)nc3c(c2=O)C[C@@H](C)N(C(=O)c2ccc(Cl)c(Cl)c2)C3)nn1C [Compound C624] | > 50 µM | 0.06 µM |
| CCN(CC)c1nc2c(c(=O)n1-c1ccc(C(=O)NC)nc1)C[C@@H](C)N(C(=O)c1ccc(Cl)c(Cl)c1)C2 [Compound C625] | > 50 µM | 0.18 µM |
| CNC(=O)c1ncc(-n2c(O)nc3c(c2=O)C[C@@H](C)N(C(=O)c2ccc(Cl)c(Cl)c2)C3)n1C [Compound C626, R-5-(7-(3,4-dichlorobenzoyl)-2-hydroxy-6-methyl-4-oxo-5,6,7,8-tetrahydropyrido[3,4-d]pyrimidin-3(4H)-yl)-N,1-dimethyl-1H-imidazole-2-carboxamide] | > 50 µM | > 2.5 µM |
| CNc1[nH]nc2cc(-n3c(NC(C)C)nc4c(c3=O)C[C@@H](C)N(C(=O)c3ccc(Cl)c(Cl)c3)C4)ccc12 [Compound C627] | 33.6 µM | 0.12 µM |
| CNC(=O)c1ccc(-n2c(N[C@@H](C)c3ccc(C(F)(F)F)cc3)nc3c(c2=O)C[C@@H](C)N(C(=O)c2ccc(Cl)c(C(F)F)c2)C3)cc1 [Compound C628] | 23.2 µM | 0.05 µM |
| CNC(=O)c1cc(-n2c(N[C@@H](C)c3ccc(C(F)(F)F)cc3)nc3c(c2=O)C[C@@H](C)N(C(=O)c2ccc(Cl)c(Cl)c2)C3)[nH]n1 [Compound C630] | 20.7 µM | 0.11 µM |
| CNC(=O)[C@H]1CC[C@H](n2c(N[C@@H](C)c3ccc(OC(F)(F)F)cc3)nc3c(c2=O)C[C@@H](C)N(C(=O)c2ccc(Cl)c(Cl)c2)C3)CC1 [Compound C632] | 6.2 µM | 0.12 µM |
| CNC(=O)c1ccc(-n2c(NC(C)C)nc3c(c2=O)C[C@@H](C)N(C(=O)c2ccc(F)c(C(F)F)c2)C3)cc1 [Compound C634] | > 50 µM | 0.63 µM |

From patent publication US20230091047A1 (priority 2019, published 2023)
